Here are results for one compound from US20260198495A1, “BINARY INSECTICIDE COMPOSITION AND USE THEREOF” (SHENYANG SINOCHEM AGROCHEMICALS R & D CO., LTD., priority 2022, published 2026).

Holding throughout (assay type): in vivo
In assay [1] the test system is 3rd-instar larvae of Pyrausta nubilalis Hubern. Briefly: Synergism assay (Bliss) of I-72 + cartap, monosultap, bisultap, Example 5, Table 5. The following applies: Ostrinia nubilalis, 72 h, read-out: Mortality rate (%). The protocol:
Test subject: 3rd-instar larvae of Pyrausta nubilalis Hubern, a sensitive strain reared indoors.
Test conditions: temperature: 24-26° C., humidity: RH 60%, and illumination: L:D=14:10
Preparation method: the test pesticides were accurately weighed respectively with an electronic analytical balance. After the two technical materials were respectively added into an appropriate amount of solvent and completely dissolved, the stock solution of the required concentration was prepared with water containing 0.1% Tween 80. The stock solutions of the two active ingredients were mixed in a certain ratio to prepare a mixed solution, which was then diluted respectively into a series of pesticide solutions with a certain concentration gradient according to the experimental design dosage.
Experimental method: the artificial diet-pesticide film method was adopted. A standard clean 24-well culture plate was selected. 1 ml of artificial diet was added to each well. After the diet cooled and solidified, a quantitative amount of a pesticide solution was added to the culture plate using a continuous sampler, and then it was air-dried naturally in the shade. The standard test insects were introduced, with 1 insect in each well, a total of 48 insects. The treated test insects were placed in an observation room under certain conditions. The reaction of the test insects was regularly observed, and the number of dead and live insects was investigated 72 h later.
The evaluation method adopted was the Bliss method. This method is applicable to the qualitative screening of insecticidal compositions. According to the concept of independent joint action he proposed, Bliss believes that the theoretical mortality rate P when insecticides are used in combination can be calculated by the following formula: […]
Pm is the mortality rate (%) of the target when the first active ingredient is at a concentration of m; and Pn is the mortality rate (%) of the target when the second active ingredient is at a concentration of n.
If the actual mortality rate of the target after the two active ingredients are mixed at a certain concentration is greater than theoretical mortality rate P, it is determined that the two active ingredients have a synergistic effect when used in combination at the set concentration, and otherwise, they have an antagonistic effect.

Assay [2] deals with Bemisia tabaci (Gennadius) nymphs. Nature of the assay: Joint toxicity of I-72 + pyrifluquinazon, Example 77, Table 77. The following applies: Bemisia tabaci; A = compound I-72, B = pyrifluquinazon; cotton leaf-disk spraying; 96 hours; read-out: LC50. As for the experimental part: Test target: Bemisia tabaci (Gennadius) nymphs, a sensitive strain reared indoors.
(§1) Preparation of the pesticide solution: according to different test requirements, the test samples were accurately weighed respectively with an electronic analytical balance. The technical pesticides were dissolved in acetone, and then diluted with 0.1% Tween 80 water into a series of pesticide solutions with a certain concentration gradient according to the experimental design dosage.
Experimental method: first, cotton leaves with neat and consistent Bemisia tabaci (Gennadius) nymphs were selected and made into leaf disks, with about 20 insects on each leaf disk. Then, they were evenly sprayed with the pesticide solution in the order from low dosage to high dosage according to the experimental design, with 1.5 mL for each leaf and 3 replicates for each treatment. In addition, a blank control was set up.
The treated test materials were placed in an observation room, and the temperature, humidity and illumination of the observation room could be adjusted as needed. The number of dead and live insects was investigated 96 hours later. […] Then, the co-toxicity coefficient of each ratio was calculated using the Sun Y-P method to evaluate the mixing effect (the same as in Example 1).

The test system of assay [3] is 3rd-instar larvae of Chilo suppressalis (Walker). Nature of the assay: Joint toxicity of I-72 + organophosphorus insecticides, rice seedling dipping, Example 15, Table 15. The following applies: 3rd-instar larvae, rice seedling dipping, 48 h, A = compound I-72, B = diazinon, read-out: LC50. As for the experimental part: Test target: 3rd-instar larvae of Chilo suppressalis (Walker), a sensitive strain reared indoors.
as §1
Experimental method: first, tender and fresh rice seedlings were selected and dipped in the prepared pesticide solution for 10 s in the order from low dosage to high dosage according to the experimental design. After natural air-drying in the shade, they were cut into small sections of 5 cm, placed in a 9-cm-diameter Petri dish with filter paper, and uniform and healthy test insects were introduced, with 10 insects for each treatment and 3 replicates for each treatment. In addition, a blank control was set up.
The treated test materials were placed in an observation room, and the temperature, humidity and illumination of the observation room could be adjusted as needed. The number of dead and live insects was investigated 48 hours later. The corrected mortality rate was calculated using the Abbott's formula, and statistical analysis was performed with the DPS data processing software to obtain the toxicity regression equation, LC50 value and 95% confidence limit of each single test pesticide and each mixture of different ratios. Then, the co-toxicity coefficient of each ratio was calculated using the Sun Y-P method to evaluate the mixing effect (the same as in Example 1).

Assay [4] has as its system 3rd-instar larvae of Ostrinia furnacalis Guenee. Briefly: Joint toxicity of I-72 + pymetrozine, Example 79, Table 79. To be noted: A = compound I-72, B = pymetrozine, corn stem dipping, 72 hours, read-out: LC50. The protocol: Test target: 3rd-instar larvae of Ostrinia furnacalis Guenee.
as §1
Experimental method: first, tender corn stems were selected and dipped in the prepared pesticide solution for 10 s in the order from low dosage to high dosage according to the experimental design. After natural air-drying in the shade, they were placed in a 9-cm-diameter Petri dish with filter paper, and uniform and healthy test insects were introduced, with 10 insects for each treatment and 3 replicates for each treatment. In addition, a blank control was set up.
(§2) The treated test materials were placed in an observation room, and the temperature, humidity and illumination of the observation room could be adjusted as needed. The number of dead and live insects was investigated 72 hours later. […] Then, the co-toxicity coefficient of each ratio was calculated using the Sun Y-P method to evaluate the mixing effect (the same as in Example 1).

In assay [5] the test system is 2nd-instar larvae of Plutella xylostella. Nature of the assay: Joint toxicity of I-72 + spiropidion, Example 31, Table 31. To be noted: Plutella xylostella, foliar; A = compound I-72, B = spiropidion; cabbage leaf dipping; 72 hours; read-out: LC50. The protocol:
Test target: 2nd-instar larvae of Plutella xylostella.
as §1
Experimental method: first, cabbage leaves were selected and dipped in the prepared pesticide solution for 10 s in the order from low dosage to high dosage according to the experimental design. After natural air-drying in the shade, they were placed in a 9-cm-diameter Petri dish with filter paper, and uniform and healthy test insects were introduced, with 10 insects for each treatment and 3 replicates for each treatment. In addition, a blank control was set up.
as §2

In assay [6] the test system is 3rd-instar larvae of Hyphantria cunea. Nature of the assay: Joint toxicity of I-72 + organophosphorus insecticides, poplar leaf dipping, Example 20, Table 20. The following applies: foliar, A = compound I-72, B = triazophos, poplar leaf dipping, 72 hours, read-out: LC50.
Excerpt: Test target: 3rd-instar larvae of Hyphantria cunea, a sensitive strain reared indoors.
Experimental method: first, fresh and tender poplar leaves were selected, cut into small sections of 5 cm, and dipped in the prepared pesticide solution for 10 s in the order from low dosage to high dosage according to the experimental design. After natural air-drying in the shade, they were placed in a 9-cm-diameter Petri dish with filter paper, and uniform and healthy test insects were introduced, with 10 insects for each treatment and 3 replicates for each treatment. In addition, a blank control was set up.

For `CN(C(=O)c1ccc2c(c1)OC(F)(F)O2)c1cccc(C(=O)Nc2c(Br)cc(C(F)(C(F)(F)F)C(F)(F)F)cc2OC(F)F)c1F` [Compound I-72], the mortality (as a rule, the share of the test organisms that died) at 0.1 µg/mL in assay [1] (single agent 0.1 mg/L) came to 22.9%. Moreover, the mortality at 0.5 µg/mL in assay [1] (single agent 0.5 mg/L) turned out to be 41.7%. Moreover, in assay [1] (single agent 1 mg/L), the mortality at 1 µg/mL was determined as 60.4%. Moreover, in assay [1] (single agent 2 mg/L), the mortality at 2 µg/mL came out at 70.8%. Further, in assay [1] (single agent 5 mg/L), the mortality at 5 µg/mL turned out to be 87.5%. Further, the LC50 (commonly the concentration that kills 50% of the test population) in assay [2] turned out to be 10.8 µg/mL; in assay [3] it was 1.76 µg/mL; in assay [4] it was 0.801 µg/mL; in assay [5] it was 0.0876 µg/mL; in assay [6] it was 5.74 µg/mL.
